US11235001B2, “RUNX inhibitor” (KYOTO UNIVERSITY, priority 2016, dated 2022)

Legend:
Half-life in mouse = conditions: in vivo
ROR1 and ROR2 = assay: Western blotting of ROR1 and ROR2 in DAOY; format: cell-based, human; conditions: 1 μM, 24 hours
Experimental: Cells were washed twice with ice cold phosphate-buffered saline (PBS) and harvested in protein lysis buffer [50 mM Tris (pH 7.4), 100 mM NaCl, 0.1 mM EDTA, 1 mM phenylmethylsulfonyl fluoride, 1 mM β-glycerophosphate, 2.5 mM sodium pyrophosphate, 1 mM Na3VO4, lx protease inhibitor (Roche) and PhosSTOP (Roche)]. Whole cell extracts were separated by SDS-polyacrylamide gel electrophoresis (SDS-PAGE) and electrotransferred onto polyvinylidene difluoride membranes. Membranes were probed with the following antibodies: anti-Ctip1 antibody (Abcam, ab19487), anti-TRIM24 antibody (Bethyl Laboratories, Inc), anti-RUNX1 antibody (A-2), anti-GAPDH (FL-335), anti-p21 (C-19), anti-Bax (N-20) antibodies (Santa Cruz Biotechnology, Inc.), anti-RUNX2, anti-RUNX3, anti-p53 antibodies (Cell Signaling Technology), anti-CBFβ antibody (FL-182, Santa Cruz Biotechnology, Inc.), anti-cleaved caspase-3 antibody (5A1E, Cell Signaling Technology), anti-PARP antibody (46D11, Cell Signaling Technology). […] Blots were detected using Chemi-Lumi One Super (nacalai tesque, Inc.) and ChemiDoc™ XRS+ Imager (Bio-Rad Laboratories, Inc.), as recommended by the manufacturers. Protein levels were quantified with Image Lab Software (Bio-Rad Laboratories, Inc.).
To DAOY cells, 1 μM Chb-M′ was administered. […] The expression of ROR1 was too weak to be detected.

HMC-1.2 cell line = assay: Cell proliferation of HMC-1.2 mast cells; format: cell-based, human
SOS1 = assay: qRT-PCR of SOS1 in MKN45 gastric cancer cells; format: cell-based, human; conditions: MKN45, 1 μM, 6 hours
Experimental: (§1) A total RNA was isolated with RNeasy mini kit (Qiagen) and reverse transcribed with Reverse script kit (TOYOBO) to generate cDNA. Real-time quantitative polymerase chain reaction (PCR) was carried out with 7500 Real-Time PCR System (Applied Biosystems) according to the manufacturer's instructions. Results were normalized to GAPDH levels. Relative expression levels were calculated using the 2-ΔΔCt method.
To the MKN45 gastric cancer cell line, 1 μM of Chb-M′ was administered. After 6 hours, the mRNA level of SOS1 was evaluated by RT-PCR method using qRT-PCR (see the above-described “Real-time quantitative PCR (qRT-PCR)”). As a control, DMSO was administered. In the figure, the mRNA expression level of SOS1 is shown as a value relative to that in the DMSO-treated group.

LU99A = assay: Cell viability, lung adenocarcinoma LU99A; format: cell-based, human; conditions: LU99A (EGFR wild-type p53 wild-type), 48 hours
[1] = tested on: BCL11A, TRIM24, p21, BAX, PUMA, MDM2, PARP, cleaved caspase-3; assay: Immunoblotting of p53 pathway and apoptosis proteins in MV4-11 cells; format: cell-based, human; conditions: 1 μM, 24 hours
Experimental: Cells were washed twice with ice cold phosphate-buffered saline (PBS) and harvested in protein lysis buffer [50 mM Tris (pH 7.4), 100 mM NaCl, 0.1 mM EDTA, 1 mM phenylmethylsulfonyl fluoride, 1 mM β-glycerophosphate, 2.5 mM sodium pyrophosphate, 1 mM Na3VO4, lx protease inhibitor (Roche) and PhosSTOP (Roche)]. Whole cell extracts were separated by SDS-polyacrylamide gel electrophoresis (SDS-PAGE) and electrotransferred onto polyvinylidene difluoride membranes. Membranes were probed with the following antibodies: anti-Ctip1 antibody (Abcam, ab19487), anti-TRIM24 antibody (Bethyl Laboratories, Inc), anti-RUNX1 antibody (A-2), anti-GAPDH (FL-335), anti-p21 (C-19), anti-Bax (N-20) antibodies (Santa Cruz Biotechnology, Inc.), anti-RUNX2, anti-RUNX3, anti-p53 antibodies (Cell Signaling Technology), anti-CBFβ antibody (FL-182, Santa Cruz Biotechnology, Inc.), anti-cleaved caspase-3 antibody (5A1E, Cell Signaling Technology), anti-PARP antibody (46D11, Cell Signaling Technology). For secondary antibodies, anti-rabbit IgG, or anti-mosue IgG HRP-linked antibodies (Cell Signaling Technology) were used. Blots were detected using Chemi-Lumi One Super (nacalai tesque, Inc.) and ChemiDoc™ XRS+ Imager (Bio-Rad Laboratories, Inc.), as recommended by the manufacturers. Protein levels were quantified with Image Lab Software (Bio-Rad Laboratories, Inc.).
Briefly, MV4-11 cells were treated with 1 μM Chb-M′ or Chb-50 for 24 hours. The treated cells were dissolved in the protein lysis buffer. Whole cell extracts were resolved by SDS-polyacrylamide gel electrophoresis (SDS-PAGE) and transferred onto polyvinylidene difluoride membranes. The membranes were probed with each antibody. Blots were detected and quantified. As a control, the cells treated with DMSO were used.

[2] = Acute toxicological testing in NOG mice; format: in vivo, mouse
Experimental: To check the pharmacological safety of the PI polyamide conjugates in vivo, acute toxicological testing of Chb-M′ in mice was first performed. NOD/Shi-scid,IL-2RγKO (NOG) mice were injected with Chb-M′ at various concentrations. Complete blood cell counts, blood biochemistry and body weight were measured (n=5).

[3] = tested on: Her2, p-Her2, SOS1, p-ERK, ERK, p-AKT, AKT; assay: Western blotting of Her2 signalling in MKN45 gastric cancer cells; format: cell-based, human; conditions: 48 hours
E-selectin = assay: In vivo E-selectin expression in bone marrow endothelial cells; design: species or system mouse; conditions: normal mice, 320 μg/kg, 6 times over 2 weeks, 24 hours after last administration
Experimental: Changes in expression levels of E-selectin in bone marrow endothelial cells by Chb-M′ administration were examined in vivo. To normal mice, DMSO (control) or Chb-M′ was administered 6 times over 2 weeks (320 μg/kg per administration). Twenty-four hours after the last administration (in a state in which Chb-M′ had been eliminated from the body of the mouse), the femur and tibia were harvested, from them bone marrow hematopoietic cells were removed, and endothelial cells were collected and subjected to FACS analysis. CD45 negative cells (bone marrow cells without bone marrow hematopoietic cells) were gated, and a ratio between CD31 positive cells (vascular endothelial marker-positive) and Lin-negative CD45-negative CD31-positive E-selectin-positive cells (E-selectin-positive bone marrow vascular endothelial cells) was analyzed by FACS.

[4] = tested on: AML cell lines expressing functional p53 (MV4-11, OCI-AML2, OCI-AML3 and MOLM-13); assay: Growth inhibition assay of AML cell lines expressing functional p53; format: cell-based, human; conditions: 48 hours; at between nanomolar to low micromolar levels
Experimental: Growth inhibition of some AML cell lines expressing functional p53 (MV4-11, OCI-AML2, OCI-AML3 and MOLM-13) by PI polyamide conjugates at different concentrations was tested. Briefly, the cells were placed at a density of 1×10^5 cells/mL. Different concentrations of a PI polyamide conjugate (Chb-M′ or Chb-50) were added to media, and the cells were incubated for 48 hours (n=3). The number of viable cells when the PI polyamide conjugate was not added was used as a control (DMSO control). Cell viability was assessed by counting the viable cells with Cell Count Reagent SF (Nacalai tesque, Inc.) and Infinite (registered trademark) 200 PRO multimode reader (TECAN) according to the manufacturer's instructions.

[5] = tested on: BCL11A, TRIM24, p53, p21, BAX, PUMA and MDM2; assay: qRT-PCR of p53 suppressors and p53 target genes in MV4-11 cells; format: cell-based, human; conditions: 1 μM, 6 hours
Experimental: as §1

CN(C)CCCNC(=O)c1cc(NC(=O)c2cc(NC(=O)c3cc(NC(=O)c4cc(NC(=O)CCCNC(=O)c5nc(NC(=O)c6nc(NC(=O)c7cc(NC(=O)c8nc(NC(=O)CCNC(=O)CCCc9ccc(N(CCCl)CCCl)cc9)cn8C)cn7C)cn6C)cn5C)cn4C)cn3C)cn2C)cn1C [Chb-M′]
half-life (Half-life in mouse): ~5 h
Expression of ROR2 at a protein level (ROR1 and ROR2): suppressed
Cell proliferation of mast cells having mutated c-kit (HMC-1.2 cell line): suppression
Expression of SOS1 (mRNA) (SOS1): suppressed
IC50 compared with the EGFR inhibitor (gefitinib) (LU99A): lower IC50 values
Cleaved form of PARP and cleaved caspase-3 (apoptosis) [1]: emergence
Protein expression levels of p53 and downstream proteins (p21, BAX) [1]: increased
Protein expression levels of suppressors of p53 (BCL11A and TRIM24) [1]: reduced
10 mg/kg dose relative to the amount necessary to gain medicinal effect [2]: more than thirty times higher
Tolerability in vivo [2]: highly tolerable
Platelets counts ([2]; 10 mg/kg body weight injection): slight decrease
Expression of SOS1 (protein) ([3]; MKN45, 0.1 μM, 1 μM, or 10 μM): suppressed
Phosphorylation of Her2 ([3]; MKN45, 0.1 μM, 1 μM, or 10 μM): suppressed
Expression of Her2 protein ([3]; MKN45, 1 μM): suppressed
Phosphorylated forms of ERK protein and AKT protein ([3]; MKN45, 1 μM): suppressed
Total amounts of ERK protein and AKT protein ([3]; MKN45, 1 μM): not changed
E-selectin expression levels in bone marrow endothelial cells (E-selectin): significantly decreased
Growth inhibition of AML cells [4]: highly effective
Gene expressions of p53 suppressors BCL11A and TRIM24 [5]: down-regulated
mRNA expression level of p53 [5]: unchanged
mRNA expression levels of p21 and PUMA [5]: increased
